# Results from the NIST ThermoML archive (doi:10.1016/j.jct.2014.12.008).
# ± gives the expanded uncertainty stated by the source.
# Conditions: Liquid, Closed cell (Static) method
Structure (SMILES),vapor or sublimation pressure (273.15 K) [kPa],vapor or sublimation pressure (283.15 K) [kPa],vapor or sublimation pressure (293.15 K) [kPa],vapor or sublimation pressure (303.15 K) [kPa],vapor or sublimation pressure (313.15 K) [kPa],vapor or sublimation pressure (323.15 K) [kPa],vapor or sublimation pressure (333.15 K) [kPa],vapor or sublimation pressure (343.15 K) [kPa],vapor or sublimation pressure (353.15 K) [kPa],vapor or sublimation pressure (363.15 K) [kPa]
"CCC(N)CCN (stereo not given) [1,3-pentanediamine]",0.026 ± 0.002,0.064 ± 0.005,0.144 ± 0.01,0.299 ± 0.019,0.585 ± 0.037,1.081 ± 0.028,1.902 ± 0.023,3.206 ± 0.032,5.201 ± 0.045,8.153 ± 0.065
"CC(CN)CCCN (stereo not given) [2-methyl-1,5-pentanediamine]",0.004 ± 0.001,0.011 ± 0.001,0.028 ± 0.002,0.065 ± 0.005,0.137 ± 0.009,0.274 ± 0.017,0.519 ± 0.033,0.934 ± 0.024,1.611 ± 0.022,2.67 ± 0.028
